Here are results for 8 compounds from patent publication US9790207B2, “Pan-genomic inhibitors of NS5A protein encoded by HCV, pharmaceutical compositions, intermediates for inhibitor synthesis, and their synthesis and application methods” (priority 2015, dated 2017).

For one data set, the system named is HCV gT1a replicon. Description: HCV replicon assay, gT1a. Format: cell-based, Hepatitis C virus (HCV). The following applies: Hepatitis C virus, GT1A, Huh-7; Huh7 replicon cells; mean. Here is the method:
(§1) The HCV replicon assay was used to determine the antiviral activity of compounds of general formula 2 (test compounds). The test cell line used in the HCV Replicon Assay was the human hepatoma cell line Huh7 incorporating the HCV replicons synthesized by an outside vendor.
(§2) 96-well plates were seeded with cells at a density of 7.5×10^3 cells per well in 50 μl of assay media. The compound stock solution was made up freshly in an assay medium (DMEM 1×, Cellgro; cat. #10-013-CV) as a 2× stock. A total of 11 serial 3-fold dilutions of test compounds were prepared from the 2× stock in the assay media ranging from 20 nM-0.2 pM final concentrations. At least 4 hours after seeding the cells, compound treatment was initiated by adding 50 μl of compound dilution to the plates. The final concentrations of compound therefore ranged from 10 nM to 0.1 pM when diluted 1:1 in culture media. The final DMSO concentration was 0.5%. Cells and inhibitors were incubated for 3 days at 37° C./5% CO2. The media was removed from the plates by gentle tapping. The cells were fixed with 100 μl 1:1 acetone:methanol for 1 minute, washed three times with PBS buffer, and then blocked with 150 μl/well 10% Fetal Bovine Serum (FBS) in PBS for 1 hour at room temperature. The cells were then washed three times with PBS buffer and incubated with 100 μl/well anti-hepatitis C core mAb (Affinity BioReagents; cat. # MA1-080, 1 mg/ml stock diluted 1:4,000 in 10% FBS-PBS) for 2 hours at 37° C. Then, the cells were washed three times with PBS and incubated with 100 μl/well HRP-Goat Anti-Mouse antibody (diluted 1:3.500 in 10% FBS-PBS) for 1 hour at 37° C. The cells were then washed three times with PBS and developed with an OPD solution, 100 μl/well (1 OPD tablet+12 ml citrate/phosphate buffer+5 μl 30% H2O2 per plate), for 30 minutes in the dark at room temperature. The reaction was stopped with 2N H2SO4 (100 μl/well), and the absorbance was measured at A490 X on a Victor^3 V 1420 multilabel counter (Perkin Elmer).
On the technique in general: In antiviral work, replicon cells carry a viral genome segment that copies itself.

A further data set has as its system HCV gT3a replicon. Description: HCV replicon assay, gT3a. Format: cell-based, Hepatitis C virus (HCV). The following applies: Hepatitis C virus, GT3A. As to the method:
as §1, §2

The test system of a further data set is HCV gT4a replicon. Description: HCV replicon assay, gT4a. It is filed as cell-based, Hepatitis C virus (HCV). The following applies: Hepatitis C virus, GT4A, Huh-7, read-out: gT4a, EC50 (pM) mean. Here is the method:
as §1, §2

In another data set the test system is HCV gT1b replicon. Put plainly: HCV replicon assay, gT1b. The following applies: Hepatitis C virus, GT1B, Huh-7, Huh7 replicon cells, mean value. It is filed as cell-based, Hepatitis C virus (HCV). As to the method: as §1, §2
In another data set the test system is HCV gT5a replicon. Description: HCV replicon assay, gT5a. The following applies: Hepatitis C virus, GT5A, Huh-7, read-out: gT5a, EC50 (pM) mean. It is filed as cell-based, Hepatitis C virus (HCV). As to the method: as §1, §2
Another data set relates to HCV gT2a replicon. Put plainly: HCV replicon assay, gT2a. It is filed as cell-based, Hepatitis C virus (HCV). The following applies: Hepatitis C virus, GT2A, Huh-7; Huh7 replicon cells; mean. Here is the method: as §1, §2
Data set [1] can be described thus: Cytotoxicity, cell viability by ATPLite Kit. It is filed as cell-based, human. The following applies: human, Huh7 cells (human hepatoma cell line), 10% FBS, maximal inhibition, read-out: Cytotox gT1b 10% FBS max. inh. Here is the method: The cytotoxicity of the test compounds was studied in parallel using the same cell line, Huh7. Cell viability was determined using the ATPLite Kit (Perkin-Elmer, Boston, USA), according to manufacturer's instructions. 96-well black/transparent bottom plates were seeded with cells at a density of 7.5×10^3 cells per well in 50 μl medium. After 18 hours, compound treatment was initiated by adding 50 μl of compound dilution into the plates. Each compound dilution was tested in triplicates. The cells and inhibitors were then incubated for 96 hours at 37° C./5% CO2. The plates were washed twice with PBS (0.2 ml/well), and then lysed by adding lysis buffer, 0.05 ml/well (all reagents were included with the ATPLite Kit). After rocking for 5 min on a rocking platform, substrate buffer was added (0.05 ml/well). After additional 5-min incubation, the plates were kept in dark for 10 min, and the luminescence was read using TopCount NXT (Packard, Perkin Elmer). CC50 values for all test compounds were determined using XLfit 4.1 software (Table 2).
Background: ATP-based viability assays read luminescence as a measure of living cells.

[2] abbreviates: Huh-7, Huh7 replicon cells, mean, read-out: gT3a, EC50 (pM) mean.
Setting [3] is: 10% FBS, read-out: gT1b 10% FBS, EC50 (pM) mean.
The mark [4] stands for this setting: 40% NHS, read-out: gT1b 40% NHS, EC50 (pM) mean.

Where a name gives a salt, the structure may show the parent alone. Read-outs that look alike come from different tables or passages of the source.

As for `COC(=O)N[C@H](C(=O)N1CCC[C@H]1c1ncc(-c2cc(F)c(C#CC#Cc3cnc([C@@H]4CCCN4C(=O)[C@H](NC(=O)OC)c4ccccc4)[nH]3)c(-c3ccccc3)c2)[nH]1)C(C)C` [2(17)•2HCl, [(S)-1-((S)-2-{5-[5-Fluoro-6-(4-{2-[(S)-1-((R)-2-methoxycarbonylamino-2-phenyl-acetyl)-pyrrolidin-2-yl]-3H-imidazol-4-yl}-buta-1,3-diynyl)-biphenyl-3-yl]-1H-imidazol-2-yl}-pyrrolidine-1-carbonyl)-2-methyl-propyl]-carbamic acid methyl ester dihydrochloride], the EC50 (as a rule, the midpoint of the concentration-response curve) with HCV gT1a replicon is 50.8 pM; with HCV gT3a replicon (setting [2]) it was 20.1 pM; with HCV gT4a replicon, 11.8 pM; with HCV gT1b replicon (setting [3]), 1.36 pM; with HCV gT1b replicon (setting [4]) it was 9.18 pM; in the data set on HCV gT5a replicon, 26 pM. Also, a half-maximal response in the data set on HCV gT2a replicon (EC50) required 5 pM. The inhibition at 96 h in data set [1] is 22%.
`COC(=O)N[C@H](C(=O)N1CCC[C@H]1c1ncc(-c2cc(C)c(C#CC#Cc3cnc([C@@H]4CCCN4C(=O)[C@H](NC(=O)OC)c4ccccc4)[nH]3)c(-c3ccccc3)c2)[nH]1)C(C)C` [2(18)•2HCl, [(S)-1-((S)-2-{5-[6-(4-{2-[(S)-1-((R)-2-Methoxycarbonylamino-2-phenyl-acetyl)-pyrrolidin-2-yl]-3H-imidazol-4-yl}-buta-1,3-diynyl)-5-methyl-biphenyl-3-yl]-1H-imidazol-2-yl}-pyrrolidine-1-carbonyl)-2-methyl-propyl]-carbamic acid methyl ester dihydrochloride]: the EC50 in the data set on HCV gT1a replicon was found to be 124 pM; with HCV gT3a replicon (setting [2]), 26 pM; in the data set with HCV gT4a replicon, 9.6 pM; in the data set with HCV gT1b replicon (setting [3]), 1.89 pM; in the data set on HCV gT1b replicon (setting [4]) it was 10.9 pM; in the data set on HCV gT5a replicon, 19.2 pM. The compound also yielded an EC50 in the data set on HCV gT2a replicon of 3 pM. In data set [1], the inhibition at 96 h was determined as 12%.
On to `COC(=O)N[C@H](C(=O)N1CCC[C@H]1c1ncc(-c2ccc(C#CC#Cc3cnc([C@@H]4CCCN4C(=O)[C@H](NC(=O)OC)c4ccccc4)[nH]3)c(Oc3ccccc3)c2)[nH]1)C(C)C` [2(19)•2HCl, [(S)-1-((S)-2-{5-[4-(4-{2-[(S)-1-((R)-2-Methoxycarbonylamino-2-phenyl-acetyl)-pyrrolidin-2-yl]-3H-imidazol-4-yl}-buta-1,3-diynyl)-3-phenoxy-phenyl]-1H-imidazol-2-yl}-pyrrolidine-1-carbonyl)-2-methyl-propyl]-carbamic acid methyl ester dihydrochloride], for which the EC50 in the data set with HCV gT1a replicon worked out at 214 pM; with HCV gT3a replicon (Huh-7, read-out: gT3a, EC50 (pM) mean, Huh7 replicon cells), 40.3 pM; in the data set on HCV gT4a replicon, 6 pM; in the data set with HCV gT1b replicon (setting [3]) it was 1.53 pM; in the data set on HCV gT1b replicon (setting [4]), 8.41 pM; in the data set with HCV gT5a replicon, 18.8 pM. Moreover, a half-maximal response in the data set with HCV gT2a replicon (EC50) required 12.6 pM. Further, in data set [1], the inhibition at 96 h worked out at 38%.
Take `COC(=O)N[C@H](C(=O)N1CCC[C@H]1c1ncc(-c2ccc(C#CC#Cc3cnc([C@@H]4CCCN4C(=O)[C@H](NC(=O)OC)c4ccccc4)[nH]3)c(Sc3ccccc3)c2)[nH]1)C(C)C` [2(20)•2HCl, [(S)-1-((S)-2-{5-[4-(4-{2-[(S)-1-((R)-2-Methoxycarbonylamino-2-phenyl-acetyl)-pyrrolidin-2-yl]-3H-imidazol-4-yl}-buta-1,3-diynyl)-3-phenylsulfanyl-phenyl]-1H-imidazol-2-yl}-pyrrolidine-1-carbonyl)-2-methyl-propyl]-carbamic acid methyl ester dihydrochloride]: the EC50 in the data set on HCV gT1b replicon (setting [3]) stood at 1.7 pM; in the data set with HCV gT1b replicon (setting [4]), 9.02 pM. For the same compound, the inhibition at 96 h in data set [1] stood at 43%.
Regarding `COC(=O)N[C@H](C(=O)N1CCC[C@H]1c1ncc(-c2ccc(C#CC#Cc3cnc([C@@H]4CCCN4C(=O)[C@H](NC(=O)OC)c4ccccc4)[nH]3)c(N(C)c3ccccc3)c2)[nH]1)C(C)C` [2(21)•2HCl, [(S)-1-((S)-2-{5-[4-(4-{2-[(S)-1-((R)-2-Methoxycarbonylamino-2-phenyl-acetyl)-pyrrolidin-2-yl]-3H-imidazol-4-yl}-buta-1,3-diynyl)-3-(methyl-phenyl-amino)-phenyl]-1H-imidazol-2-yl}-pyrrolidine-1-carbonyl)-2-methyl-propyl]-carbamic acid methyl ester trihydrochloride], the EC50 came to 72 pM with HCV gT1a replicon; 35.1 pM in the data set on HCV gT3a replicon (setting [2]); 11 pM in the data set on HCV gT4a replicon; 1.79 pM with HCV gT1b replicon (setting [3]); 14.2 pM in the data set on HCV gT1b replicon (setting [4]); 26.6 pM with HCV gT5a replicon. In the data set on HCV gT2a replicon, the EC50 turned out to be 10.6 pM. In addition, the inhibition at 96 h in data set [1] came out at 14%.
As to `COC(=O)N[C@H](C(=O)N1CCC[C@H]1c1ncc(-c2ccc(-c3ccc(-c4cnc([C@@H]5CCCN5C(=O)[C@H](NC(=O)OC)c5ccccc5)[nH]4)cc3)c(-c3ccccc3)c2)[nH]1)C(C)C` [2(22)•2HCl, ((S)-1-{(S)-2-[5-(4-{2-[(S)-1-((R)-2-Methoxycarbonylamino-2-phenyl-acetyl)-pyrrolidin-2-yl]-3H-imidazol-4-yl}-[1,1′;2′,1″]terphenyl-4′-yl)-1H-imidazol-2-yl]-pyrrolidine-1-carbonyl}-2-methyl-propyl)-carbamic acid methyl ester dihydrochloride], the EC50 is 117 pM with HCV gT1a replicon; 16.6 pM in the data set with HCV gT3a replicon (setting [2]); 9.4 pM with HCV gT4a replicon; 2.58 pM in the data set with HCV gT1b replicon (setting [3]); 38.8 pM in the data set with HCV gT1b replicon (setting [4]); 31.3 pM with HCV gT5a replicon. Further, in the data set with HCV gT2a replicon, the EC50 was 3.9 pM. For the same compound, in data set [1], the inhibition at 96 h came out at 30%.
Turning to `COC(=O)N[C@H](C(=O)N1CCC[C@H]1c1ncc(-c2ccc(-c3ccc(-c4cnc([C@@H]5CCCN5C(=O)[C@H](NC(=O)OC)c5ccccc5)[nH]4)cc3)c(Oc3ccccc3)c2)[nH]1)C(C)C` [2(23)•2HCl, ((S)-1-{(S)-2-[5-(4′-{2-[(S)-1-((R)-2-Methoxycarbonylamino-2-phenyl-acetyl)-pyrrolidin-2-yl]-3H-imidazol-4-yl}-2-phenoxy-biphenyl-4-yl)-1H-imidazol-2-yl]-pyrrolidine-1-carbonyl}-2-methyl-propyl)-carbamic acid methyl ester dihydrochloride], the concentration giving a half-maximal response (EC50) worked out at 154 pM in the data set on HCV gT1a replicon; 10.3 pM in the data set on HCV gT3a replicon (setting [2]); 5.4 pM with HCV gT4a replicon; 2.1 pM in the data set with HCV gT1b replicon (setting [3]); 15.7 pM in the data set on HCV gT1b replicon (setting [4]); 13.6 pM with HCV gT5a replicon. Further, a half-maximal response in the data set on HCV gT2a replicon (EC50) required 4.1 pM. In addition, the inhibition at 96 h in data set [1] was determined as 27%.
For `COC(=O)N[C@H](C(=O)N1CCC[C@H]1c1ncc(C#CC#Cc2ccc(-c3cnc([C@@H]4CCCN4C(=O)[C@H](NC(=O)OC)c4ccccc4)[nH]3)cc2-c2ccccc2)[nH]1)C(C)C` [2(30)•2HCl, [(S)-1-((S)-2-{5-[4-(5-{2-[(S)-1-((R)-2-Methoxycarbonylamino-2-phenyl-acetyl)-pyrrolidin-2-yl]-3H-imidazol-4-yl}-biphenyl-2-yl)-buta-1,3-diynyl]-1H-imidazol-2-yl}-pyrrolidine-1-carbonyl)-2-methyl-propyl]-carbamic acid methyl ester dihydrochloride], the EC50 worked out at 2.1 pM in the data set with HCV gT1b replicon (setting [3]) and 25.3 pM with HCV gT1b replicon (setting [4]). Besides, in data set [1], the inhibition at 96 h was 33%.
